{
  "source": "patent US10209240B2",
  "about": "“Predicting human developmental toxicity of pharmaceuticals using human stem-like cells and metabolomic ratios” (STEMINA BIOMARKER DISCOVERY, INC., priority 2012, dated 2019)",
  "key": {"WA09 hES cells": {"test_system": "WA09 hES cells", "conditions": "for Teratogenicity Potential (μM) Cell Viability: human, 72 h"}, "hES cells": {"test_system": "hES cells", "assay": "devTOX computational model predictions (Version 2.0, Version 2.1) from hES cell metabolomics", "format": "cell-based, human", "conditions": "single dose per treatment (Dose column)", "excerpt": "The selection process weighted the predictive capacity of a feature, overall intensity, and peak shape to identify very well behaved features/metabolites that could be measured by targeted LC-MS or even by other detection systems.\nThis simplified model is based on a ratio of the reference treatment (DMSO) normalized values of ADMA and cystine."}, "Humans": {"test_system": "Humans", "conditions": "cited from earlier work; for Humans (known human developmental toxicity): training and test set; for Known Effect: validation and test set treatments of Example 2"}, "Rodent": {"test_system": "Rodent", "conditions": "cited from earlier work; for Rodent prediction: training and test set"}, "[1]": {"test_system": "mouse embryonic stem cell", "conditions": "training and test set; weak/moderate and strong teratogens both labeled teratogen; cited from earlier work"}, "zebrafish": {"test_system": "zebrafish", "conditions": "training and test set; weak/moderate and strong teratogens both labeled teratogen; cited from earlier work"}},
  "data": [
    {"smiles": "CC1=C(/C=C/C(C)=C/C=C/C(C)=C\\C(=O)O)C(C)(C)CCC1", "note": "[13-cis Retinoic Acid]", "values": [
      {"measurement": "Viability Prediction", "setting": "WA09 hES cells", "result": "NON"},
      {"measurement": "Teratogenicity Potential (μM) Cell Viability", "setting": "WA09 hES cells", "result": ">300", "unit": "µM"},
      {"measurement": "Model Predictions Version 2.0", "setting": "hES cells", "result": "Ter"},
      {"measurement": "Model Predictions Version 2.1", "setting": "hES cells", "result": "Ter"},
      {"measurement": "Humans (known human developmental toxicity)", "setting": "Humans", "result": "TER"},
      {"measurement": "Known Effect", "setting": "Humans", "result": "Ter"},
      {"measurement": "Rodent prediction", "setting": "Rodent", "result": "TER"},
      {"measurement": "mEST prediction", "setting": "[1]", "result": "TER^p"},
      {"measurement": "ZET prediction", "setting": "zebrafish", "result": "TER^r"}
    ]},
    {"smiles": "CC1=C(/C=C/C(C)=C/C=C/C(C)=C/C(=O)O)C(C)(C)CCC1", "note": "[All-trans Retinoic Acid]", "values": [
      {"measurement": "Viability Prediction", "setting": "WA09 hES cells", "result": "NON"},
      {"measurement": "Teratogenicity Potential (μM) Cell Viability", "setting": "WA09 hES cells", "result": 114.5, "unit": "µM"},
      {"measurement": "Model Predictions Version 2.0", "setting": "hES cells", "result": "Ter"},
      {"measurement": "Model Predictions Version 2.1", "setting": "hES cells", "result": "Ter"},
      {"measurement": "Humans (known human developmental toxicity)", "setting": "Humans", "result": "TER"},
      {"measurement": "Known Effect", "setting": "Humans", "result": "Ter"},
      {"measurement": "Rodent prediction", "setting": "Rodent", "result": "TER"},
      {"measurement": "mEST prediction", "setting": "[1]", "result": "TER^b,p"},
      {"measurement": "ZET prediction", "setting": "zebrafish", "result": "TER^c,e,r"}
    ]},
    {"smiles": "NC(=O)N1c2ccccc2C=Cc2ccccc21", "note": "[Carbamazepine]", "values": [
      {"measurement": "Viability Prediction", "setting": "WA09 hES cells", "result": "NON"},
      {"measurement": "Teratogenicity Potential (μM) Cell Viability", "setting": "WA09 hES cells", "result": ">300", "unit": "µM"},
      {"measurement": "Model Predictions Version 2.0", "setting": "hES cells", "result": "Ter"},
      {"measurement": "Model Predictions Version 2.1", "setting": "hES cells", "result": "Ter"},
      {"measurement": "Humans (known human developmental toxicity)", "setting": "Humans", "result": "TER"},
      {"measurement": "Known Effect", "setting": "Humans", "result": "Ter"},
      {"measurement": "Rodent prediction", "setting": "Rodent", "result": "TER"},
      {"measurement": "mEST prediction", "setting": "[1]", "result": "TER^i"},
      {"measurement": "ZET prediction", "setting": "zebrafish", "result": "TER^t"}
    ]},
    {"smiles": "O=C1NC(=O)C(c2ccccc2)(c2ccccc2)N1", "note": "[Diphenylhydantoin]", "values": [
      {"measurement": "Viability Prediction", "setting": "WA09 hES cells", "result": "NON"},
      {"measurement": "Teratogenicity Potential (μM) Cell Viability", "setting": "WA09 hES cells", "result": 288.7, "unit": "µM"},
      {"measurement": "Model Predictions Version 2.0", "setting": "hES cells", "result": "Non"},
      {"measurement": "Model Predictions Version 2.1", "setting": "hES cells", "result": "Non"},
      {"measurement": "Humans (known human developmental toxicity)", "setting": "Humans", "result": "TER"},
      {"measurement": "Known Effect", "setting": "Humans", "result": "Ter"},
      {"measurement": "Rodent prediction", "setting": "Rodent", "result": "TER"},
      {"measurement": "mEST prediction", "setting": "[1]", "result": "TER^b,i"},
      {"measurement": "ZET prediction", "setting": "zebrafish", "result": "NON^a"}
    ]},
    {"smiles": "O=C1CCC(N2C(=O)c3ccccc3C2=O)C(=O)N1", "note": "(stereo not drawn) [Thalidomide]", "values": [
      {"measurement": "Viability Prediction", "setting": "WA09 hES cells", "result": "NON"},
      {"measurement": "Teratogenicity Potential (μM) Cell Viability", "setting": "WA09 hES cells", "result": ">300", "unit": "µM"},
      {"measurement": "Model Predictions Version 2.0", "setting": "hES cells", "result": "Ter"},
      {"measurement": "Model Predictions Version 2.1", "setting": "hES cells", "result": "Ter"},
      {"measurement": "Humans (known human developmental toxicity)", "setting": "Humans", "result": "TER"},
      {"measurement": "Known Effect", "setting": "Humans", "result": "Ter"},
      {"measurement": "Rodent developmental toxicity testing, result in words", "setting": "Rodent; relation to maternal toxicity where stated", "result": "did not indicate the compound's teratogenic potential in humans"},
      {"measurement": "Rodent prediction", "setting": "Rodent", "result": "NON^a"},
      {"measurement": "ZET prediction", "setting": "zebrafish", "result": "TER^d"}
    ]}
  ]
}
